Laboratory results as given in article PMC6630837 (Pharmaceuticals, 2019).

Columns and labels:
[1] = tested on: SH-SY5Y human neuroblastoma cells; test: Neuroprotection against H2O2-induced toxicity, MTT cell viability assay; assay type: cell-based; conditions: 50 μM compound, 100 μM H2O2, 24 h, 37 °C
Description: Neuroprotective activity assays against H2O2-induced toxicity. On the basis of previously described protocols, the flavones and analogues herein synthesized were screened for their neuroprotective effects against H2O2-induced oxidative stress and neuronal damage in SH-SY5Y human neuroblastoma cells by means of a thiazolyl blue tetrazolium bromide (MTT) reduction-based cell viability assay.
Neuroprotective assays in human neuroblastoma (SH-SY5Y) cells. […] Differences were considered significant when P < 0.05.

[2] = tested on: SH-SY5Y neuroblastoma cells; test: Cytotoxic activity of compounds alone, MTT cell viability assay; conditions: 50 μM compound alone, 24 h, 37 °C, 0.5% DMSO, SH-SY5Y
Description: Neuroprotective assays in human neuroblastoma (SH-SY5Y) cells. SH-SY5Y cells were grown in Dulbecco’s Modified Eagle Medium (DMEM, Gibco, Life Technologies) supplemented with 10% fetal bovine serum (FBS, Biochrom GmbH) and 1% Penicillin-Streptomycin (Gibco, Life Technologies) in a humidified incubator at 37 °C, 5% CO2. For the neuroprotective activity assay, undifferentiated SGSY-5Y cells were plated onto 96-well flat-bottomed microtiter plates at a density of 1 × 10^4 cells/well in DMEM supplemented with 2% FBS and preincubated for 24 h at 37 °C, 5% CO2. Compounds (stored as 10 mM solutions in DMSO at −20 °C) were then added to achieve a final concentration of 50 μM and, after 30 min, cells were incubated in the presence or absence of 20 μM Aβ protein fragment 1-42 (Sigma-Aldrich, dissolved in DMSO and stored in 2 mM aliquots at −20 °C) or 100 μM of H2O2 (Sigma-Aldrich, dissolved to 10 mM in 0.9% NaCl aqueous solution immediately prior to the assay) overnight at 37 °C, 5% CO2. […] The following morning, 20 μL of a 5 mg/mL solution of 3-(4,5-dimethylthiazol-2-yl)-2,5-diphenyltetrazolium bromide (MTT, Sigma-Aldrich) in PBS (Gibco, Life Technologies) was added to each well and the plates were further incubated for 4 h at 37 °C, followed by the addition of DMSO (200 μL) to each well in order to dissolve the resulting formazan crystals. After 2 h incubating at 37 °C, the optical density (OD) at 540 nm (with a 620 nm reference filter) was measured in an Amersham Biosciences Biotrak II Plate Reader. The percentage of MTT reduction was determined according to Equation (1). […] Differences between experimental conditions were compared for statistical significance by one-way ANOVA followed by a Tukey’s post-test, an analysis carried out using GraphPad Prism Software (LA Jolla, CA, USA). Differences were considered significant when P < 0.05. In order to exclude direct MTT reduction, compounds were also tested in (a) the absence of cells and (b) in the absence of both cells and culture medium, using the same experimental conditions described above. (2) MTT Reduction (% of Control)=[ODsample−ODmedium/ODcell control−ODmedium] × 100 […]
Tabl e S2. Cytotoxic activity of each compound assessed in SH-SY5Y neuroblastoma cells via an MTT cell viability assay.a Comp ound Nr. MTT reduction (% control) p-va l u e vs . untreated cell control (unpai red t-t es t) […]
a Cells were incubated for 24 h at 37 °C, in the presence (50 μM) or absence of each compound.

[3] = biological target: acetylcholinesterase (AChE) (Electrophorus electricus, UniProt O42275); test: Acetylcholinesterase inhibition, Ellman's colorimetric assay; assay type: biochemical; conditions: 100 µM compound; read-out: AChE inhibitory efficacy (percentage of inhibition)
Chain of acetylcholinesterase (AChE) (O42275 24-633): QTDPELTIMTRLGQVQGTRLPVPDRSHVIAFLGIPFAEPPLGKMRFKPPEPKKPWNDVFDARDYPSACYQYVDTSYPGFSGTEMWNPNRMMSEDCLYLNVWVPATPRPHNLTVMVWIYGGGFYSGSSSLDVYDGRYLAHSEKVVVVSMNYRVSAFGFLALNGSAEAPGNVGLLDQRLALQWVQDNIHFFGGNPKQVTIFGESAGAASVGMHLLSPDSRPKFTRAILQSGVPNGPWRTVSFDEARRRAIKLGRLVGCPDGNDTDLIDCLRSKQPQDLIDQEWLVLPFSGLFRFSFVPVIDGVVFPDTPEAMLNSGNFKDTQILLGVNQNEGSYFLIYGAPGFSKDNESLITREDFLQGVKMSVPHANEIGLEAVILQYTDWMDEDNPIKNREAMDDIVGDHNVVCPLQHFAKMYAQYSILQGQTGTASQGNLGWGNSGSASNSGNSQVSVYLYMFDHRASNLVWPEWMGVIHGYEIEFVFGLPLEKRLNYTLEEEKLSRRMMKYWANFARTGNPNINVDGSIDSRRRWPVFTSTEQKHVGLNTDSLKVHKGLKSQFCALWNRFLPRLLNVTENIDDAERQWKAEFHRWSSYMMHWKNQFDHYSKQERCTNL
Description: For cholinesterase inhibition tests (acetylcholinesterase (AChE, electrophorus
was kept within 1.25% cuvette concentration.
AChE and at 18.2 µM concentration for BuChE. […]

[4] = biological target: T1, butyrylcholinesterase (BuChE) (Equus caballus, UniProt P81908); test: biochemical; conditions: 100 µM compound
T1 construct: (BuChE, equine serum); from tissue; host or cells: equine serum
T1 sequence (P81908 whole entry): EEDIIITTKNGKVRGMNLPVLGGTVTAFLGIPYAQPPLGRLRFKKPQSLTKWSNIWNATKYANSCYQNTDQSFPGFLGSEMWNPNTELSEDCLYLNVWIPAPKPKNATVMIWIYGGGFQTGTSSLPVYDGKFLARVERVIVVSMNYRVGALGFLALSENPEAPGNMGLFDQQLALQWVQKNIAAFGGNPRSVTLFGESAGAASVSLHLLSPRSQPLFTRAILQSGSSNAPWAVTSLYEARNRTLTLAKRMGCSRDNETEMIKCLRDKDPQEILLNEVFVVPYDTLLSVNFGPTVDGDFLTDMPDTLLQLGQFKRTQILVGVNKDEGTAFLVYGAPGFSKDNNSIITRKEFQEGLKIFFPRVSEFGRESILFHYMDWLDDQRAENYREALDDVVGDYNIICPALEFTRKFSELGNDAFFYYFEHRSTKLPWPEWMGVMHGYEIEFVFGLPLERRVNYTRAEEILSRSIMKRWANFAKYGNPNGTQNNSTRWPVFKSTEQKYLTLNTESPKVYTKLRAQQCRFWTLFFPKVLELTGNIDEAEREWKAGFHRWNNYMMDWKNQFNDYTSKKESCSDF
Description: Experimental procedures for cholinesterase inhibition a s sa y s. For cholinesterase inhibition tests (acetylcholinesterase (AChE, electrophorus
el ec t r ic u s) a n d b ut yr ylcholinesterase (BuChE, equine serum), the Ellman’s cholorimetric assay1 was followed, with minor modifications. DMSO
was kept within 1.25% cuvette concentration. The chromogenic agent DTNB [5,5’-dithiobis(2-nitrobenzoic acid)] was fixed at 0.975 mM
con centration; 0. 1 M phosphate buffer (pH 8. 0) was employed, T = 25 °C, and the reaction was monitored for 125 s. […]
of inhibition, the substrate concentration (acetylthiocholine iodide for AChE; S- butyr ylthiocholine iodide for BuChE) was fixed at 29 µM for
AChE and at 18.2 µM concentration for BuChE.
Lineweaver-Burk plot (or double reciprocal plot, 1/V vs . 1/ [S ]) wa s u se d for estimating both, the mode of inhibition and the inhibition constants […]
Competitive inhibition (inhibitor only bonds the free enzyme):
KKiiii = [II ]KKMM iiaaaa
M i xe d inhibition (inhibitor binds both, the free and the complexed enzyme) :
Uncompetitive (the inhibitors only binds the complexed enzyme):
N on -competitive (inhibitor binds both the free enzyme and the complexed enzyme with equal affinity) :
Table S3. […]
of the synthesized flavone analogues at 100 µ M.
C omp ou n d N o. AChE B uChE

O=c1cc(-c2ccc(N3CCOCC3)cc2)oc2c([C@@H]3O[C@H](CO)[C@@H](O)[C@H](O)[C@H]3O)c(O)cc(O)c12 [Compound 19, 8-(β-D-Glucopyranosyl)-5,7-dihydroxy-4′-(morpholin-4-yl)flavone]
Neuroprotective effect against H2O2-induced toxicity (MTT cell viability) [1]: able to produce statistically significant differences when compared to H2O2 controls
Neuroprotective effect against H2O2-induced toxicity (MTT cell viability) ([1]; listed as 37): fully rescued
MTT reduction (% control) [2]: 138.5 ± 3.6%
inhibition at 100 µM [3]: 18%
BuChE inhibitory efficacy (percentage of inhibition) [4]: n.i .
